Data published in patent US9365851B2, “Spalt-like transcription factor 4 (SALL4) and uses thereof” (National University of Singapore, priority 2011, dated 2016).

Test system: primary human AML cells
Experiment: Xenotransplantation of peptide-treated primary human AML cells into NSG mice
Type: in vivo
Details: 11 weeks after transplantation, cells treated with Pep-1 plus peptide
Protocol: FIGS. 12A-12F: Treatment of SALL4 peptide in primary human AML cells induces reduced cell viability in culture and impaired leukemic engraftment in vivo. (12A) Wild type peptide treatment reduces cell viability of human AML cells in culture, and this effect can be reversed in part by the PTEN inhibitor SF1670. 1×10^6 AML cells were treated with nothing (None), Pep-1 alone (Mock), or 20 μM wild type (wt), or scrambled peptide (scr), or wt peptide with 400 nM PTEN inhibitor SF1670 (wt+inh) or with 100 nM TSA for 48 hours, as described in the Methods. Cell viability of untreated primary AML cells is set as 100. […] Percentage of human CD45+ cells engrafted in BM, spleen (SP) and peripheral blood (PB) was determined by flow cytometry. […]
NSG (NOD.Cg-Prkdcscid Il2rgtm 1Wjl/SzJ, The Jackson Laboratory, ME, USA) mice were bred and maintained in the Children's Hospital Boston animal facility. […] The percentage of human CD45+ cells was calculated as follows: % human CD45+ cells=No. human CD45+ cells/(No. human CD45+ cells+No. mouse CD45+ cells)×100. […]
Subsequently tested was the ability of peptide treatment to inhibit the development of AML in vivo utilizing xenografts. […] In addition, the engraftment of human CD45+ cells was evaluated by flow cytometry (FIG. 12E). […]

Substance | average engraftment of human CD45+ cells in bone marrow
H-MSRRKQAKPQHI-OH [wt peptide, MSRRKQAKPQHI] | 0.5%
Scr peptide: same 12 amino acids as the wt peptide, but in a scrambled sequence; negative control (SRMRQKIHPKIQ) [reference compound] | greater than 74%
